Measured values: US12304897B2, “15-PGDH inhibitors” (KYORIN PHARMACEUTICAL CO., LTD., priority 2019, dated 2025)

Biological target: recombinant human 15-PGDH (Homo sapiens (Human), UniProt P15428)
Experiment: 15-PGDH enzyme inhibition test
Format: biochemical
Conditions: 4 nM recombinant human 15-PGDH, 30 μM PGE2, 1 mM NAD+, fluorescence 340/440 nm after 60 min
Protocol: 15-PGDH Enzyme Inhibition Test
Test compounds and 4 nM recombinant human 15-PGDH (R&D systems) in 50 mM Tris-HCl (pH 8.0) containing 0.01% TWEEN 20 (Sigma) and 0.01% bovine gamma globulin (Sigma) were put into 384 Flat Bottom Black plates (Corning, 3820) and allowed to stand for 12 minutes at room temperature. Then, 30 μM PGE2 (Cayman chemical) and 1 mM NAD^+ (Sigma) were added to start reaction. Sixty minutes after the start of reaction, signals were measured at an excitation wavelength of 340 nm and a fluorescence emission wavelength of 440 nm using Synergy 2 (BioTeck). The intensity of the fluorescent signal obtained when an assay buffer was added in place of the test compounds and NAD^+ was defined as 100% and that obtained with the addition of NAD^+ was defined as 0%.

Chain of recombinant human 15-PGDH (P15428 whole entry): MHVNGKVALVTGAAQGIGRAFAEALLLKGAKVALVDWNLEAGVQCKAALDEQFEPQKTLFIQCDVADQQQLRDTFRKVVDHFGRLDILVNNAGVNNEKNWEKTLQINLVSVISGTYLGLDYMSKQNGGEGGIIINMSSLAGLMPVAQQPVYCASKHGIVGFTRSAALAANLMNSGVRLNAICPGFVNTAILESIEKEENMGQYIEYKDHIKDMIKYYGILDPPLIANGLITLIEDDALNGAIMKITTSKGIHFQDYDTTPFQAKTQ

Compound | IC50
Cn1oc2cc(-c3cccc4cc(C(=O)N5CCC(F)(F)CC5)cnc34)ccc2c1=O [compound 148] | 3 to 10 nM
Cc1cc(C(N)=O)ccc1-c1cccc2cc(C(=O)N3CCC(F)(F)CC3)ccc12 [compound 53] | 3 to 10 nM
CNC(=O)c1ccc(-c2cccc3cc(C(=O)N4CCC(F)(F)CC4)ccc23)cc1F [compound 56] | 3 to 10 nM
NCCn1ncc2cc(-c3cccc4cc(C(=O)N5CCC(F)(F)CC5)ccc34)ccc2c1=O [compound 162] | < 3 nM
CN1Cc2cc(-c3ccc4ccc(C(=O)N5CCC(F)(F)CC5)cc4c3)ccc2C1=O [compound 138] | < 3 nM
COC(=O)c1ccc(-c2cccc3cc(C(=O)N4CCC(F)(F)CC4)ccc23)cc1F [compound 97] | 3 to 10 nM
Cn1ccc2cc(-c3cccc4cc(C(=O)N5CCC(F)(F)CC5)ccc34)cnc2c1=O [compound 15] | < 3 nM
O=C(c1ccc2c(-c3ccc4c(=O)[nH]ccc4c3)c(F)ccc2c1)N1CCC(F)(F)CC1 [compound 49] | < 3 nM
O=C(c1ccc2c(-c3ccc4c(=O)[nH]ncc4c3)cccc2c1)N1CCCC2CC21 (stereo not drawn) [compound 124] | < 3 nM
CN(C)C(=O)c1ccc2c(-c3ccn4c(=O)n(C)nc4c3)cccc2c1 [compound 166] | 3 to 10 nM
Cn1ncc2cc(-c3cccc4cc(C(=O)N5CCC(F)(F)CC5)ccc34)cnc2c1=O [compound 17] | < 3 nM
Cc1ccc2cc(C(=O)N3CCC(F)(F)CC3)ccc2c1-c1ccc2c(=O)[nH]ncc2c1 [compound 100] | < 3 nM
O=C(c1ccc2c(-c3ccc4c(=O)[nH]ncc4c3)c(F)ccc2c1)N1CCC(F)(F)CC1 [compound 87] | < 3 nM
O=C(O)c1ccc(-c2cccc3cc(C(=O)N4CCC(F)(F)CC4)ccc23)cc1F [compound 68] | < 3 nM
CC1CN(C(=O)c2ccc3c(-c4ccc5c(=O)[nH]ncc5c4)cccc3c2)CCC1(F)F (stereo not drawn) [compound 119] | < 3 nM
O=C(c1ccc2cc(-c3ccc4c(=O)[nH]ccc4c3)ccc2c1)N1CCC(F)(F)CC1 [compound 89] | ≥ 10 nM

Compound | IC50
C[C@@H]1CCN(C(=O)c2ccc3c(-c4ccc5c(c4)CN(C)C5=O)cccc3c2)C1 [compound 58] | < 3 nM
Cn1ccc2cc(-c3c(F)ccc4cc(C(=O)N5CCC(F)(F)CC5)ccc34)ccc2c1=O [compound 158] | < 3 nM
O=C(O)c1c(F)cc(-c2cccc3cc(C(=O)N4CCC(F)(F)CC4)ccc23)cc1F [compound 126] | < 3 nM
CS(=O)(=O)CCn1ncc2cc(-c3cccc4cc(C(=O)N5CCC(F)(F)CC5)ccc34)ccc2c1=O [compound 161] | < 3 nM
O=C(c1cnc2c(-c3ccc4c(=O)[nH]ccc4c3)cccc2c1)N1CCC(F)(F)CC1 [compound 134] | < 3 nM
Cc1c(-c2cccc3cc(C(=O)N4CCC(F)(F)CC4)ccc23)ccc2ncccc12 [compound 13] | 3 to 10 nM
O=C(c1ccc2c(-c3ccc4c(=O)[nH]ncc4c3)cccc2c1)N1CC=CCC1 [compound 123] | < 3 nM
CN1Cc2cc(-c3cccc4cc(C(=O)N5CCC(F)(F)CC5)cnc34)ccc2C1=O [compound 99] | 3 to 10 nM
CCN(CC)C(=O)c1ccc2c(-c3ccc4c(=O)[nH]ncc4c3)cccc2c1 [compound 155] | < 3 nM
CCN(CC)C(=O)c1ccc2c(-c3cnc4c(c3)CN(C)C4=O)cccc2c1 [compound 154] | < 3 nM
CN1Cc2cc(-c3c(F)ccc4cc(C(=O)N5CCC(F)(F)CC5)ccc34)ccc2C1=O [compound 59] | < 3 nM
Cn1ccc2cc(-c3cccc4cc(C(=O)N5CCC(F)(F)CC5)cnc34)ncc2c1=O [compound 144] | ≥ 10 nM
O=C(c1ccc2c(-c3cnc4c(=O)[nH]ncc4c3)c(F)ccc2c1)N1CCC(F)(F)CC1 [compound 102] | 3 to 10 nM
O=C(c1ccc2c(-c3ccc4ncccc4c3)cccc2c1)N1CCC(F)(F)CC1 [compound 76] | < 3 nM
Cn1cnc2cc(-c3cccc4cc(C(=O)N5CCC(F)(F)CC5)cnc34)ccc2c1=O [compound 164] | < 3 nM
CN1Cc2cc(-c3cccc4cc(C(=O)N5CCCC6CC65)ccc34)cnc2C1=O (stereo not drawn) [compound 151] | < 3 nM

Other lines, results leading:

IC50 | Compound
< 3 nM | Cn1nc2n(c1=O)CCN(c1cccc3cc(C(=O)N4CCC(F)(F)CC4)ccc13)C2 [compound 75]
< 3 nM | COCn1nc2cc(-c3cccc4cc(C(=O)N5CCC(F)(F)CC5)ccc34)ccn2c1=O [compound 129]
< 3 nM | Cc1c(-c2cccc3cc(C(=O)N4CCC(F)(F)CC4)ccc23)ccn2c(=O)n(C)nc12 [compound 115]
≥ 10 nM | CN1CCC2(CCN(c3cccc4cc(C(=O)N5CCCCC5)ccc34)CC2)C1=O [compound 79]
< 3 nM | CN1Cc2cc(-c3coc4cc(C(=O)N5CCCCC5)ccc34)ccc2C1=O [compound 9]
3 to 10 nM | O=C(c1ccc2c(-c3ccc4c(c3)CN(CC3CC(F)(F)C3)C4=O)cccc2c1)N1CCC(F)(F)CC1 [compound 40]
< 3 nM | O=C(c1ccc2c(N3CCn4c(nn(CC(F)F)c4=O)C3)cccc2c1)N1CCCCC1 [compound 19]
< 3 nM | CN1Cc2cc(-c3cncc4cc(C(=O)N5CCCCC5)ccc34)ccc2C1=O [compound 69]
< 3 nM | CN1Cc2cc(-c3cccc4cc(C(=O)N5CC6(CCC6)C5)ccc34)cnc2C1=O [compound 150]
< 3 nM | O=C(c1ccc2c(-c3ccc4c(=O)[nH]ccc4c3)cccc2c1)N1CCCCC1 [compound 64]
< 3 nM | Cn1nc2cc(-c3cccc4cc(C(=O)N5CCC(F)(F)CC5)ccc34)ccn2c1=O [compound 65]
3 to 10 nM | Cc1nc2c(o1)CCN(c1cccc3cc(C(=O)N4CCCCC4)ccc13)C2 [compound 51]
3 to 10 nM | CN1Cc2cc(-c3c(F)ccc4cc(C(=O)N5CCC(F)(F)CC5)ccc34)cnc2C1=O [compound 85]
< 3 nM | CCN1Cc2cc(-c3cccc4cc(C(=O)N5CCC(F)(F)CC5)ccc34)ccc2C1=O [compound 66]
< 3 nM | C[C@H]1CCCN(C(=O)c2ccc3c(N4CCc5c(cc[nH]c5=O)C4)cccc3c2)C1 [compound 60]
< 3 nM | CN1Cc2cc(-c3ccnc4cc(C(=O)N5CCCCC5)ccc34)ccc2C1=O [compound 98]
< 3 nM | CN1Cc2cc(-c3cccc4cc(C(=O)N5CCC[C@@H](F)C5)ccc34)ccc2C1=O [compound 63]
< 3 nM | CN1Cc2nc(-c3cccc4cc(C(=O)N5CCC(F)(F)CC5)ccc34)ccc2C1=O [compound 32]
3 to 10 nM | COc1nccc2c1CCN(c1cccc3cc(C(=O)N4CCCCC4)ccc13)C2 [compound 22]
